Results published in article PMC4052546 (Pharmaceuticals, 2011).
Read-outs that look alike come from different tables or passages of the source.

Assays:
malaria parasites = conditions: incubation in vitro; cited from earlier work
[1] = Pharmacokinetics of AS and DHA in rat plasma after single and multiple intravenous AS injections (automated blood sampler, LC-MS/MS); assay type: in vivo, Sprague-Dawley rats; conditions: for Cmax / MRT / Tmax / clearance / AUC(0-t) / AUC / half-life / average plasma concentration over 0–72 h (Cav = AUC0–72 h/72): male, Sprague-Dawley, rat, plasma, iv; for AUC(0-t): read-out: AUC0–3 h; for AUC: read-out: AUCinfininty;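 as to all read-outs here: blood drawn through a jugular vein catheter by an automated sampling system, plasma drug levels measured by LC-MS/MS with positive electrospray ionization against standard curves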
Protocol: The Culex ABS is a blood sampling and metabolism monitoring machine, which is controlled by its own internal computer. We were successful in evaluating PK for long-term periods by using this system. After jugular vein cannulation, study animals were individually placed in the system, which allowed for a micro-pump to infuse heparinized-saline (10 unit heparin/mL saline) at a rate of 1-2 μL/min to prevent coagulation within the catheter. Culex samples were obtained with precise blood volumes from the study animals and the total volume taken was less than 6% per day and 14% during the entire study period. Blood samples were maintained at 3 °C using Culex's temperature-controlled fractional collector. Plasma was separated from the blood samples and processed for drug extraction.
(§1) Three samples were collected during each phase of absorption, distribution, or elimination for full PK analysis on the first and last dosing days following intravenous bonus injection. Additionally, trough levels (pre-dose) samples were collected in between each dose to follow drug accumulation and a series PK approach (18 samples per animal) was used. Thus, each animal was dosed and plasma samples were obtained for up to three days. A total of 18 (0, 5, 15, 30, 45 min, 1, 2, 3, 6, 24.25, 48.167, 48.25, 48.5, 48.75, 49, 50, 51, and 54 h) samples were collected into cooled vials. 50 μL of blood per sample was collected pre-dosing and after dosing and 100 μL per sample was taken from 0.08 h to 56 h after dosing. During collection, blood samples were added into the vials, which contained dried heparin (50 units) on the bottom of each vial. Thus, a total blood volume of 1.75 mL was obtained from each rat during the three day treatment period (0.85 mL of blood on day 0, 0.1 mL on day 1, and 0.9 mL on day 2), which is 9.3% of the animals total blood volume. Subjects for replicated crossover design were followed FDA recommendation [22] with a 2 week wash out period. During wash-out period, if the catheter was blocked up by any reasons the jugular vein tubes were infused or replaced.
The samples were vortexed vigorously (set at 10 or max setting) for 8–10 sec followed by a 10,000 × g centrifugation at 4 °C for 10 min. Aliquots (approximately 250 μL ea) of the undisturbed supernatants were transferred into a 96-well plate for LC-MS/MS analyses. […] Drugs were chromatographically separated using an acetonitrile/ammonium acetate gradient through a Waters XTerra C18 column (2.1 × 50 mm, 3.5 μm particle size) and corresponding pre-column. Quantification was done using the most abundant daughter ions following positive electrospray ionization. Chromatograms were analyzed using Xcalibur mass spectrometry software. The responses-concentrations standard curves were fitted and weighted.
The area under the curve (AUC) was determined by the linear trapezoidal rule with extrapolation to infinity based on the concentration of the last time point divided by the terminal rate constant. The bioequivalence (BE) evaluation of the two formulations were analyzed by using BE software (WinNonlin 5.2, Pharsight Co. Mountain View, CA. USA) in rats for a NDA application.

[2] = rat, in vivo
Description: An automated blood sampler (Culex ABS, Bioanalytical Systems, Inc. West Lafayette, IN) was used for rat blood sample collection.
as §1
The area under the curve (AUC) was determined by the linear trapezoidal rule with extrapolation to infinity based on the concentration of the last time point divided by the terminal rate constant.

[3] = Hematology and recovery study after multiple intravenous AS; assay type: in vivo, rats
Protocol: At 24 and 96 h after the final dose of Chinese and WRAIR intravenous AS, male and female animals were anesthetized by isoflurane inhalation anesthesia (Abbott Labs, North Chicago, IL, USA) delivered by a small-animal anesthesia system (Euthanex Corp, Palmer Park, PA, USA). Each animal was initially placed in a chamber primed with 5% isoflurane, and upon induction, maintained in a non-rebreathing mask at 2% isoflurane delivered with […]. […] One mL of the blood sample was placed in K3 EDTA tubes (Beckton Dickinson, Franklin Lakes, NJ, USA) for CBC analysis using the ABX Pentra 60 hematology analyzer (ABX diagnostics, Irvine, CA, USA). Another 0.7 mL of blood was placed in serum separator tubes (Becton Dickinson, Franklin Lakes, NJ, USA) for biochemistry analysis using commercial assay kits on the Vitros 250 Chemistry analyzer (Johnson & Johnson, Rochester, NY, USA). Reticulocyte analysis was performed utilizing light microscopy. After sample collection, rats were euthanized by cervical dislocation.

[4] = cited from earlier work
parasitemia = test system: parasitemia; parameters: method as in earlier work; conditions: intravenous AS, clinical trials; cited from earlier work
[5] = Chinese formulation (AS/NaHCO3), 20 mg/kg i.v. daily for 3 days, male rats, Period 1, Day 3
[6] = Chinese formulation (AS/NaHCO3), 20 mg/kg i.v. daily for 3 days, male rats, Period 2, Day 3
[7] = WRAIR formulation (AS/0.3M PBS Buffer), 20 mg/kg i.v. daily for 3 days, male rats, Period 2, Day 3
[8] = 20 mg/kg, Chinese formulation (AS/NaHCO3), 20 mg/kg i.v. daily for 3 days, male rats, Period 1, Day 1
[9] = 20 mg/kg, Chinese formulation (AS/NaHCO3), 20 mg/kg i.v. daily for 3 days, male rats, Period 1, Day 3
[10] = 20 mg/kg, Chinese formulation (AS/NaHCO3), 20 mg/kg i.v. daily for 3 days, male rats, Period 2, Day 1
[11] = 20 mg/kg, Chinese formulation (AS/NaHCO3), 20 mg/kg i.v. daily for 3 days, male rats, Period 2, Day 3
[12] = 20 mg/kg, WRAIR formulation (AS/0.3M PBS Buffer), 20 mg/kg i.v. daily for 3 days, male rats, Period 1, Day 1
[13] = 20 mg/kg, WRAIR formulation (AS/0.3M PBS Buffer), 20 mg/kg i.v. daily for 3 days, male rats, Period 1, Day 3
[14] = 20 mg/kg, WRAIR formulation (AS/0.3M PBS Buffer), 20 mg/kg i.v. daily for 3 days, male rats, Period 2, Day 1
[15] = 20 mg/kg, WRAIR formulation (AS/0.3M PBS Buffer), 20 mg/kg i.v. daily for 3 days, male rats, Period 2, Day 3
[16] = male, Sprague-Dawley, iv, 20 mg/kg, 1 day

C[C@H]1[C@H](OC(=O)CCC(=O)O)O[C@@H]2O[C@@]3(C)CC[C@H]4[C@H](C)CC[C@@H]1[C@@]24OO3 [AS, artesunate]
time to completely inhibit parasite growth (malaria parasites): 2 to 4 h
AUC0–3 h ([1]; Chinese formulation (AS/NaHCO3), 20 mg/kg i.v. daily for 3 days, male rats, Period 1, Day 1): 867.5 ± 136.7 ng·h/mL
AUC0–3 h [1, 5]: 614.2 ± 191.8 ng·h/mL
Cmin [1, 5]: 4.35 ± 2.54 ng/mL
AUC0–3 h ([1]; Chinese formulation (AS/NaHCO3), 20 mg/kg i.v. daily for 3 days, male rats, Period 2, Day 1): 932.6 ± 144.2 ng·h/mL
AUC0–3 h [1, 6]: 665.4 ± 236.3 ng·h/mL
Cmin [1, 6]: 3.35 ± 2.11 ng/mL
Degree of Fluctuation = 100% × (Cmax − Cmin)/Cav [1, 6]: 1192 ± 219%
time at which Cmax was measured ([1]; Chinese formulation, 20 mg/kg i.v., rats, period 1, day 1): 5 min
time at which Cmax was measured ([1]; Chinese formulation, 20 mg/kg i.v., rats, period 2, day 1): 5 min
time at which Cmax was observed ([1]; Chinese formulation, 20 mg/kg i.v., rats, period 2, day 3): 5 min
AUC0–3 h ([1]; WRAIR formulation (AS/0.3M PBS Buffer), 20 mg/kg i.v. daily for 3 days, male rats, Period 1, Day 1, 20 mg/kg): 879.4 ± 167.4 ng·h/mL
Cmin ([1]; WRAIR formulation (AS/0.3M PBS Buffer), 20 mg/kg i.v. daily for 3 days, male rats, Period 1, Day 3): 3.56 ± 0.85 ng/mL
AUC0–3 h ([1]; WRAIR formulation (AS/0.3M PBS Buffer), 20 mg/kg i.v. daily for 3 days, male rats, Period 1, Day 3, 20 mg/kg): 611.1 ± 162.1 ng·h/mL
Cmin [1, 7]: 3.87 ± 1.57 ng/mL
Degree of Fluctuation = 100% X (Cmax − Cmin)/Cav [1, 7]: 1218 ± 172%
AUC0–3 h ([1]; WRAIR formulation (AS/0.3M PBS Buffer), 20 mg/kg i.v. daily for 3 days, male rats, Period 2, Day 3, 20 mg/kg): 669.7 ± 159.3 ng·h/mL
time at which Cmax was measured ([1]; WRAIR formulation, 20 mg/kg i.v., rats, period 1, day 1): 5 min
AS concentration on day 3 compared to day 1 ([1]; i.v. treatments in rats): one-third lower
Cmax [1, 8]: 4300 ng/mL
MRT [1, 8]: 15.6 ± 2.4 min
Tmax [1, 8]: 4.98 min
clearance [1, 8]: 380 ± 54.2 mL/min/kg
AUC(0-t) [1, 8]: 868 ng·h/mL
AUC [1, 8]: 872 ± 138 ng·h/mL
half-life ([1]; 20 mg/kg, Chinese formulation (AS/NaHCO3), 20 mg/kg i.v. daily for 3 days, male rats, Period 1, Day 1, read-out: t1/2 distribution (converted)): 3.6 ± 0.6 min
half-life ([1]; 20 mg/kg, Chinese formulation (AS/NaHCO3), 20 mg/kg i.v. daily for 3 days, male rats, Period 1, Day 1, read-out: t1/2 elimination (converted)): 24 ± 4.2 min
Cmax [1, 9]: 2460 ng/mL
MRT [1, 9]: 17.4 ± 6 min
Tmax [1, 9]: 4.98 min
average plasma concentration over 0–72 h (Cav = AUC0–72 h/72) [1, 9]: 204 ng·h/mL
clearance [1, 9]: 570 ± 170 mL/min/kg
AUC(0-t) [1, 9]: 614 ng·h/mL
AUC [1, 9]: 617 ± 193 ng·h/mL
half-life ([1]; 20 mg/kg, Chinese formulation (AS/NaHCO3), 20 mg/kg i.v. daily for 3 days, male rats, Period 1, Day 3, read-out: t1/2 distribution (converted)): 6 ± 1.8 min
half-life ([1]; 20 mg/kg, Chinese formulation (AS/NaHCO3), 20 mg/kg i.v. daily for 3 days, male rats, Period 1, Day 3, read-out: t1/2 elimination (converted)): 24.6 ± 6.6 min
Cmax [1, 10]: 4140 ng/mL
MRT [1, 10]: 15.6 ± 3 min
Tmax [1, 10]: 4.98 min
clearance [1, 10]: 360 ± 56.2 mL/min/kg
AUC(0-t) [1, 10]: 932 ng·h/mL
AUC [1, 10]: 935 ± 144 ng·h/mL
half-life ([1]; 20 mg/kg, Chinese formulation (AS/NaHCO3), 20 mg/kg i.v. daily for 3 days, male rats, Period 2, Day 1, read-out: t1/2 distribution (converted)): 4.8 ± 1.8 min
half-life ([1]; 20 mg/kg, Chinese formulation (AS/NaHCO3), 20 mg/kg i.v. daily for 3 days, male rats, Period 2, Day 1, read-out: t1/2 elimination (converted)): 25.8 ± 4.2 min
Cmax [1, 11]: 2540 ng/mL
MRT [1, 11]: 15.6 ± 5.4 min
Tmax [1, 11]: 4.98 min
clearance [1, 11]: 562 ± 240 mL/min/kg
AUC(0-t) [1, 11]: 665 ng·h/mL
AUC [1, 11]: 667 ± 238 ng·h/mL
half-life ([1]; 20 mg/kg, Chinese formulation (AS/NaHCO3), 20 mg/kg i.v. daily for 3 days, male rats, Period 2, Day 3, read-out: t1/2 distribution (converted)): 7.2 ± 1.8 min
half-life ([1]; 20 mg/kg, Chinese formulation (AS/NaHCO3), 20 mg/kg i.v. daily for 3 days, male rats, Period 2, Day 3, read-out: t1/2 elimination (converted)): 23.4 ± 7.8 min
Cmax [1, 12]: 4030 ng/mL
MRT [1, 12]: 18 ± 3.6 min
Tmax [1, 12]: 4.98 min
clearance [1, 12]: 378 ± 67.2 mL/min/kg
AUC(0-t) [1, 12]: 879 ng·h/mL
AUC [1, 12]: 882 ± 167 ng·h/mL
half-life ([1]; 20 mg/kg, WRAIR formulation (AS/0.3M PBS Buffer), 20 mg/kg i.v. daily for 3 days, male rats, Period 1, Day 1, read-out: t1/2 distribution (converted)): 4.8 ± 1.2 min
half-life ([1]; 20 mg/kg, WRAIR formulation (AS/0.3M PBS Buffer), 20 mg/kg i.v. daily for 3 days, male rats, Period 1, Day 1, read-out: t1/2 elimination (converted)): 24.6 ± 1.8 min
Cmax [1, 13]: 2430 ng/mL
MRT [1, 13]: 16.2 ± 5.4 min
Tmax [1, 13]: 4.98 min
average plasma concentration over 0–72 h (Cav = AUC0–72 h/72) [1, 13]: 204 ng·h/mL
clearance [1, 13]: 559 ± 118 mL/min/kg
AUC(0-t) [1, 13]: 611 ng·h/mL
AUC [1, 13]: 613 ± 163 ng·h/mL
half-life ([1]; 20 mg/kg, WRAIR formulation (AS/0.3M PBS Buffer), 20 mg/kg i.v. daily for 3 days, male rats, Period 1, Day 3, read-out: t1/2 distribution (converted)): 6 ± 2.4 min
half-life ([1]; 20 mg/kg, WRAIR formulation (AS/0.3M PBS Buffer), 20 mg/kg i.v. daily for 3 days, male rats, Period 1, Day 3, read-out: t1/2 elimination (converted)): 28.2 ± 6 min
Cmax [1, 14]: 4210 ng/mL
MRT [1, 14]: 16.8 ± 2.4 min
Tmax [1, 14]: 4.98 min
clearance [1, 14]: 387 ± 52.1 mL/min/kg
half-life ([1]; 20 mg/kg, WRAIR formulation (AS/0.3M PBS Buffer), 20 mg/kg i.v. daily for 3 days, male rats, Period 2, Day 1, read-out: t1/2 distribution (converted)): 4.8 ± 0.6 min
half-life ([1]; 20 mg/kg, WRAIR formulation (AS/0.3M PBS Buffer), 20 mg/kg i.v. daily for 3 days, male rats, Period 2, Day 1, read-out: t1/2 elimination (converted)): 26.4 ± 3.6 min
Cmax [1, 15]: 2710 ng/mL
MRT [1, 15]: 16.2 ± 3.6 min
Tmax [1, 15]: 4.98 min
clearance [1, 15]: 517 ± 162 mL/min/kg
AUC(0-t) [1, 15]: 670 ng·h/mL
AUC [1, 15]: 673 ± 160 ng·h/mL
half-life ([1]; 20 mg/kg, WRAIR formulation (AS/0.3M PBS Buffer), 20 mg/kg i.v. daily for 3 days, male rats, Period 2, Day 3, read-out: t1/2 distribution (converted)): 8.4 ± 1.2 min
half-life ([1]; 20 mg/kg, WRAIR formulation (AS/0.3M PBS Buffer), 20 mg/kg i.v. daily for 3 days, male rats, Period 2, Day 3, read-out: t1/2 elimination (converted)): 32.4 ± 11.4 min
90% CI for T/R, Lower, AUCD1 [2, 16]: 88.72%
90% CI for T/R, Upper, AUCD1 [2, 16]: 111.28%
BE (bioequivalence), AUCD1 [2]: Yes
BE (bioequivalence), Cmax D1 [2]: Yes
90% CI between the two intravenous formulations, AUC0–3 h ([2]; iv): 88.72–111.28%
90% CI for the difference between the two i.v. formulations, AUC1–3D ([2]; iv): 87.65–112.35%
90% CI of the difference between the two intravenous formulations, AUCD3 ([2]; iv): 82.30–117.69%
total reticulocyte counts ([3]; 20 mg/kg AS intravenously, male and female rats, both formulations): significant reductions
all hematological parameters after recovery period ([3]; 20 mg/kg AS, 3 days post last dosing): reverted to normal
elimination half-life (t1/2) [4]: 2 to 18 min
Cmax and AUC values on the last dose day compared to the first day ([4]; multiple oral treatments in malaria patients and healthy subjects): reduced by one-third to one-seventh
time for parasitemia to fall by half (parasitemia): 3.18 h
